Laboratory results as given in the supplement of paper PMC10331698.
± gives the standard deviation of the averaged measurements.

Tests used:
Test in all cases: level (log10 ratio to DMSO vehicle control); higher = higher biomarker level / cell amount than vehicle control
[1] = compound: C=CC(=O)OCCC(F)(F)C(F)(F)C(F)(F)C(F)(F)C(F)(F)C(F)(F)C(F)(F)C(F)(F)F [8:2 Fluorotelomer acrylate]; conditions: in DMSO
Experimental: (§1)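 BioMAP Diversity Plus panel of 12 human primary cell co-culture systems (3C, 4H, LPS, SAg, BT, BF4T, BE3C, CASM3C, HDF3CGF, KF3CT, MyoF, Mphg). Compounds were added 1 h before stimulation and left for 24 h (MyoF 48 h; BT 72 h for soluble read-outs or 6 d for IgG). Biomarkers were read by ELISA, cytotoxicity by SRB, PBMC viability and proliferation by Alamar Blue. Each well value was divided by the mean of 8 DMSO control wells on the same plate and log10 transformed; duplicate blinded samples were tested at 4 concentrations.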

[2] = compound: OCCCCC(F)(F)C(F)(F)C(F)(F)C(F)(F)F [4:4 Fluorotelomer alcohol]; conditions: in DMSO
Experimental: as §1

[3] = compound: OCCCC(F)(F)C(F)(F)C(F)(F)C(F)(F)C(F)(F)C(F)(F)C(F)(F)C(F)(F)F [3-(Perfluorooctyl)propanol]; conditions: 6700 nM; in DMSO
Experimental: as §1

[4] = compound: FC(F)(I)C(F)(F)C(F)(F)C(F)(F)C(F)(F)C(F)(F)I [1,6-Diiodoperfluorohexane]; conditions: 6700 nM; in DMSO
Experimental: as §1

[5] = compound: OCC(F)(F)C(F)(F)C(F)(F)C(F)(F)C(F)(F)C(F)(F)C(F)(F)C(F)(F)CO [1H,1H,10H,10H-Perfluorodecane-1,10-diol]; conditions: in DMSO
Experimental: as §1

[6] = compound: O=C(Cl)C(F)(F)C(F)(F)C(F)(F)C(=O)Cl [Hexafluoroglutaryl chloride]; conditions: in DMSO
Experimental: as §1

[7] = compound: OCC(F)(F)C(F)(F)C(F)(F)C(F)(F)C(F)(F)C(F)(F)C(F)(F)C(F)(F)C(F)(F)C(F)(F)C(F)(F)F [11:1 Fluorotelomer alcohol]; conditions: in DMSO
Experimental: as §1

[8] = compound: OCCC(F)(F)C(F)(F)C(F)(F)C(F)(F)C(F)(F)C(F)(F)C(F)(F)C(F)(F)F [8:2 Fluorotelomer alcohol]; conditions: 6700 nM; in DMSO
Experimental: as §1

Test System	level (log10) ([1]; 6700 nM)	level (log10) ([1]; 20000 nM)	level (log10) ([1]; 60000 nM)	level (log10) ([2]; 6700 nM)	level (log10) ([2]; 20000 nM)	level (log10) ([2]; 60000 nM)	level (log10) [3]	level (log10) [4]	level (log10) ([5]; 6700 nM)	level (log10) ([5]; 20000 nM)	level (log10) ([5]; 60000 nM)	level (log10) ([6]; 6700 nM)	level (log10) ([6]; 20000 nM)	level (log10) ([6]; 60000 nM)	level (log10) ([7]; 1100 nM)	level (log10) ([7]; 3300 nM)	level (log10) ([7]; 10000 nM)	level (log10) [8]
BE3C:CXCL8/IL-8	-0.019 ± 0.027	-0.013 ± 0.033	0.043 ± 0.021	-0.013 ± 0.016	-0.0155 ± 0.0021	0.029 ± 0.04	-0.046 ± 0.011	0.011	-0.078 ± 0.0099	-0.098 ± 0.025	-0.127	0.0585 ± 0.046	0.0345 ± 0.077	0.0555 ± 0.083	-0.086 ± 0.011	-0.158 ± 0.055	-0.0975 ± 0.042	-0.054 ± 0.0042
BE3C:HLA-DR	-0.0045 ± 0.011	0.009 ± 0.017	0.019 ± 0.034	-0.0005 ± 0.018	-0.0075 ± 0.0064	-0.0035 ± 0.016	-0.01 ± 0.023	-0.01	-0.0495 ± 0.019	-0.174 ± 0.022	-0.517	-0.0075 ± 0.013	-0.016 ± 0.0057	-0.007 ± 0.0071	-0.0755 ± 0.037	-0.141 ± 0.015	-0.163 ± 0.0042	-0.02
SAg:SRB	-0.004 ± 0.0028	-0.0055 ± 0.011	0.001 ± 0.014	0.0005 ± 0.0021	0.0085 ± 0.015	-0.0055 ± 0.0035	-0.009 ± 0.0071	0.011	0.001 ± 0.018	-0.0145 ± 0.015	-0.067	-0.0025 ± 0.0035	-0.0035 ± 0.0035	0.0045 ± 0.0021	-0.0415 ± 0.0092	-0.066 ± 0.0028	-0.065 ± 0.013	-0.0185 ± 0.00071
LPS:SRB	0.0015 ± 0.0021	-0.005 ± 0.0014	0.004 ± 0.0042	0.02 ± 0.0057	0.022 ± 0.024	0.017 ± 0.033	-0.033 ± 0.018	0.012	0.0005 ± 0.016	-0.012 ± 0.017	-0.042	-0.0075 ± 0.0064	0.0015 ± 0.012	0.003 ± 0.0014	-0.029 ± 0.0099	-0.0455 ± 0.0021	-0.036 ± 0.0014	-0.0125 ± 0.011
BE3C:CD87/uPAR	0.03 ± 0.041	0.027 ± 0.035	0.0595 ± 0.049	0.0075 ± 0.03	-0.025 ± 0.016	0.0065 ± 0.033	0.02 ± 0.047	0.059	-0.013 ± 0.011	-0.042 ± 0.024	-0.337	-0.0055 ± 0.0021	-0.009 ± 0.0028	0.011 ± 0.0085	-0.035 ± 0.0014	-0.0795 ± 0.012	-0.0385 ± 0.026	-0.023 ± 0.041
SAg:CD69	-0.01 ± 0.027	-0.025 ± 0.016	-0.0295 ± 0.032	0.009 ± 0.0057	-0.002 ± 0.0028	0.001 ± 0.02	-0.036 ± 0.014	-0.026	-0.042 ± 0.044	-0.0685 ± 0.066	-0.119	-0.009 ± 0.021	-0.02 ± 0.018	-0.015 ± 0.0028	-0.0355 ± 0.021	-0.0425 ± 0.029	-0.038 ± 0.023	-0.018 ± 0.018
